Experiments:
[1] = Thermal stability test (residual rate of compound (I) by HPLC); type: physicochemical
Protocol: The test compound was placed in a glass bottle and allowed to stand under the following conditions (1) and (2).
(1): Closed state, 60° C.;
The measurement conditions in high performance liquid chromatography are as follows.
Column: L-column ODS [4.6 mm×250 mm, manufactured by Chemicals Evaluation and Research Institute, Japan]
Column temperature: 40° C.
Detection wavelength: 220 nm
The residual rate (%) was calculated by the following formula.
The residual rate (%)=[1−(sum of peak area percentages of impurities and decomposed products)]×100

[2] = Absorbability test in dog; type: in vivo; details: fasted male beagle, ranitidine pretreated, oral 10 mg/body in 0.5% methyl cellulose, plasma; for AUC(0-t): read-out: AUC0-24 h
Protocol: Ranitidine (2.5 mg/kg) was intramuscularly injected to the posterior region of thigh of a fasted male beagle (body weight: about 10 kg, n=6) to make the intragastric pH acidic 30 minutes before, immediately before and 30 minutes after administration of the test compound. The test compound was suspended in a 0.5% methyl cellulose solution at a dose of 10 mg/body and orally administered. About 3 ml of blood was collected from the median antebrachial vein using a heparin-treated glass syringe 0.5, 1, 2, 3, 4, 6, 8 and 24 hours after the administration. The collected blood was centrifuged to obtain plasma which was cryopreserved at −20° C. until measurement of the concentration of the test compound. One hundred μl of thawed plasma was mixed with 300 μl of an internal standard solution [a methanol solution of the d3-compound (Ia), 5 ng/ml] and centrifuged. The supernatant was filtered through a filter and the filtrate was analyzed by LC/MS/MS.
A calibration curve was prepared by the same operation as above using each 100 μl of a calibration curve standard solution [a methanol solution of the compound (Ia), 0.5-400 ng/ml] which had been adjusted to respective concentrations in place of 100 μl of dog plasma.
The LC/MS/MS analysis conditions are shown below.
The area under the concentration in plasma-time curve (AUC0-24h) and the maximum concentration in plasma (Cmax) as pharmacokinetic parameters indicative of drug absorbability were calculated from the results obtained according to the aforementioned method using the compounds of Example 1, Example 2 (2C) and Comparative Example 4 as test compounds.

[3] = Condition (1): closed state, 60° C., 1 month
[4] = Condition (1): closed state, 60° C., 1 week
[5] = Condition (1): closed state, 60° C., time 0
[6] = Condition (2): non-closed state, 40° C., humidity 75%, 1 week
[7] = Condition (2): non-closed state, 40° C., humidity 75%, time 0
[8] = Condition (1): closed state, 60° C., 3 months
[9] = Condition (2): non-closed state, 40° C., humidity 75%, 1 month

| Compound | Residual rate of Compound (I) (%) [1, 3] | Residual rate of Compound (I) (%) [1, 4] | Residual rate of Compound (I) (%) [1, 5] | Residual rate of Compound (I) (%) [1, 6] | Residual rate of Compound (I) (%) [1, 7] | Residual rate of Compound (I) (%) [1, 8] | Residual rate of Compound (I) (%) [1, 9] | Cmax [2] | AUC(0-t) [2] | also measured |
| --- | --- | --- | --- | --- | --- | --- | --- | --- | --- | --- |
| CC1=C(C(=O)OC(C)C)[C@@H](c2cccc([N+](=O)[O-])c2)C(C(=O)OC2CN(C(c3ccccc3)c3ccccc3)C2)=C(N)N1.O=S(=O)(O)O [Comparative Example 2, (R)-2-Amino-1,4-dihydro-6-methyl-4-(3-nitrophenyl)-3,5-pyridinedicarboxylic Acid 3-(1-diphenylmethylazetidin-3-yl) Ester 5-isopropyl Ester Monosulfate, reference compound] | 24.3% | 25.0% | 93.1% | 8.9% | 93.1% |  |  |  |  |  |
| CC1=C(C(=O)OC(C)C)[C@@H](c2cccc([N+](=O)[O-])c2)C(C(=O)OC2CN(C(c3ccccc3)c3ccccc3)C2)=C(N)N1.Cl.Cl.O.O [Example 1, (R)-2-Amino-1,4-dihydro-6-methyl-4-(3-nitro-phenyl)-3,5-pyridinedicarboxylic Acid 3-(1-diphenylmethyl-azetidin-3-yl) Ester 5-isopropyl Ester Dihydrochloride dihydrate] | 95.3% | 96.6% | 99.4% | 97.8% | 99.4% | 92.0% | 96.0% | 168 ng/mL | 1660 ng·h/mL | Residual rate of Compound (I) (%) ([1]; Condition (2): non-closed state, 40° C., humidity 75%, 3 months): 94.1% |
| Br.Br.CC1=C(C(=O)OC(C)C)[C@@H](c2cccc([N+](=O)[O-])c2)C(C(=O)OC2CN(C(c3ccccc3)c3ccccc3)C2)=C(N)N1.O.O [Example 2, (R)-2-Amino-1,4-dihydro-6-methyl-4-(3-nitro-phenyl)-3,5-pyridinedicarboxylic Acid 3-(1-diphenylmethyl-azetidin-3-yl) Ester 5-isopropyl Ester Dihydrobromide dihydrate] | 94.2% |  | 99.8% | 95.5% | 99.8% |  | 92.1% | 230 ng/mL | 1930 ng·h/mL | Residual rate of Compound (I) (%) ([1]; Condition (1): closed state, 60° C., 1 month, listed as Example 2A, Dihydrobromide dihydrate): 99.7%; Residual rate of Compound (I) (%) ([1]; Condition (1): closed state, 60° C., 1 week, listed as Example 2A, Dihydrobromide dihydrate): 99.8%; Residual rate of Compound (I) (%) ([1]; Condition (1): closed state, 60° C., 1 week, listed as Example 2C, Dihydrobromide dihydrate): 95.0%; Residual rate of Compound (I) (%) ([1]; Condition (1): closed state, 60° C., 3 months, listed as Example 2A, Dihydrobromide dihydrate): 99.7%; Residual rate of Compound (I) (%) ([1]; Condition (1): closed state, 60° C., 3 months, listed as Example 2C, Dihydrobromide dihydrate): 94.5%; Residual rate of Compound (I) (%) ([1]; Condition (1): closed state, 60° C., time 0, listed as Example 2C, Dihydrobromide dihydrate): 99.1%; Residual rate of Compound (I) (%) ([1]; Condition (2): non-closed state, 40° C., humidity 75%, 1 month, listed as Example 2A, Dihydrobromide dihydrate): 99.6%; Residual rate of Compound (I) (%) ([1]; Condition (2): non-closed state, 40° C., humidity 75%, 1 week, listed as Example 2A, Dihydrobromide dihydrate): 99.7%; Residual rate of Compound (I) (%) ([1]; Condition (2): non-closed state, 40° C., humidity 75%, 3 months, listed as Example 2A, Dihydrobromide dihydrate): 99.4%; Residual rate of Compound (I) (%) ([1]; Condition (2): non-closed state, 40° C., humidity 75%, 3 months, listed as Example 2C, Dihydrobromide dihydrate): 90.6%; Residual rate of Compound (I) (%) ([1]; Condition (2): non-closed state, 40° C., humidity 75%, time 0, listed as Example 2C, Dihydrobromide dihydrate): 99.1% |
| CC1=C(C(=O)OC(C)C)[C@@H](c2cccc([N+](=O)[O-])c2)C(C(=O)OC2CN(C(c3ccccc3)c3ccccc3)C2)=C(N)N1 [Comparative Example 4, (R)-2-Amino-1,4-dihydro-6-methyl-4-(3-nitrophenyl)-3,5-pyridinedicarboxylic Acid 3-(1-diphenylmethylazetidin-3-yl) Ester 5-isopropyl Ester, reference compound] |  |  |  |  |  |  |  | 161 ng/mL | 1500 ng·h/mL |  |
| CC1=C(C(=O)OC(C)C)[C@@H](c2cccc([N+](=O)[O-])c2)C(C(=O)OC2CN(C(c3ccccc3)c3ccccc3)C2)=C(N)N1.CS(=O)(=O)O.CS(=O)(=O)O [Comparative Example 3, (R)-2-Amino-1,4-dihydro-6-methyl-4-(3-nitrophenyl)-3,5-pyridinedicarboxylic Acid 3-(1-diphenylmethylazetidin-3-yl) Ester 5-isopropyl Ester Dimethanesulfonate, reference compound] | 90.0% | 93.2% | 99.3% | 0.1% | 99.3% | 84.1% | 0.0% |  |  |  |
| (R)-2-Amino-1,4-dihydro-6-methyl-4-(3-nitrophenyl)-3,5-pyridinedicarboxylic acid 3-(1-diphenylmethylazetidin-3-yl) ester 5-isopropyl Ester Disulfate Dihydrate [Comparative Example 1, reference compound] | 0.4% | 68.0% | 99.3% | 96.8% | 99.3% |  | 84.4% |  |  |  |

— patent publication US20090170826A1, “Acid Addition Salt of Optically Active Dihydropyridine Derivative” (Daiichi Sankyo Company ,Limited, priority 2005, published 2009)
